In the assay the test system is CEM cells HIV-1 protection, formazan growth assay. The experiment in a line: NCI AIDS Antiviral Assay. The settings on record: for IC50: measured here: growth of uninfected CEM cells. In a few lines:
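Human CEM cells, uninfected and HIV-1-infected, received five drug concentrations, and growth was read by soluble formazan assay. Compounds giving at least 50% protection were retested; reproducible 100% protection defined confirmed active.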

“And” between values parts separate entries of the source, which are not always exact repeats. Equal entries are not always repeated. The source made the active and inactive calls.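 The calls were made as follows: active = compounds giving half or more protection of infected cells from virus-caused growth loss, again on retest; inactive = the rest.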

As to `C/C=C1\CN(C)C2Cc3c([nH]c4ccccc34)C(c3cc4c5c([nH]c4cc3OC)C3(C(=O)OC)CC4CC(CC)C3N(CC5)C4)CC1C2C(=O)OC` (stereo unspecified), the result was inactive. For orientation: EC50 means the concentration giving half of the maximal effect. By IC50 is commonly meant the point on the concentration scale where inhibition reaches its midpoint. A high value points to a need for much substance. In the case of `Cc1ccc(NCC2(/N=C/c3ccccc3)OC(CO)C(O)C2O)cc1` (stereo unspecified), the EC50 was above 263 µM and the IC50 is 6.61 µM.

Consider `C=CCn1cc(C(=O)NC(=O)NCCCCCOC(=O)CCCCCCCCCCC(=O)OCCCCCNC(=O)NC(=O)c2cn(CC=C)c(=O)n(C)c2=O)c(=O)n(C)c1=O`, for which the EC50 was above 5.75 µM and the IC50 was above 5.75 µM.

In the case of `COc1cccc(NC(=O)CC(=O)N2N=C(n3ccc4ccccc43)CC2c2ccccc2)c1` (stereo unspecified), the outcome was inactive. Take `CC(=O)NC(CCCCNC(=O)NCCCl)C(=O)NCc1ccccc1` (stereo unspecified): the EC50 was above 646 µM and the half-maximal inhibitory concentration (IC50) was above 646 µM. For `C=C(CC[C@@H](O)C(Cl)CO)[Si](C)(C)C` (stereo partly specified), the EC50 was above 110 µM and the IC50 is above 110 µM. `O=[N+]([O-])c1ccc(-c2noc(-c3ccccc3)c2C2=NCCN2)cc1`: the EC50 was above 15.5 µM and the IC50 was above 15.5 µM.

For `OCCN(CC(O)C(O)CN(CCO)C(=S)S)C(=S)S` (stereo unspecified), the EC50 is above 58.9 µM and the IC50 was above 58.9 µM. Consider `N#C/C(=C\c1ccc(O)c(O)c1)C(=O)c1ccc(O)c(O)c1`, for which the EC50 is above 200 µM and the IC50 was determined as 51.3 µM. For `CCc1cccc(C)c1NC(=O)CC1Sc2ccccc2NC1=O` (stereo unspecified), in that order: above 28.8 µM and 17.8 µM.

As for `COc1cc(OC)c(C2=NOC(n3c4ccccc4c4ccccc43)C2)c(OC)c1` (stereo unspecified), the outcome was inactive. Turning to `O=C1c2ccccc2OP(=O)(OCC(F)(F)F)OC1(C(F)(F)F)C(F)(F)F` (stereo unspecified), the EC50 was above 575 µM and the IC50 was found to be 126 µM. The like results for `O=C(CC(=O)n1nc(-c2ccccc2)c(N=Nc2ccc([N+](=O)[O-])cc2)c1-c1ccccc1)Nc1ccc(Cl)cc1` were, in that order, above 45.7 µM and above 45.7 µM. For `CN(/N=C/c1ccc(C(=O)O)cc1)C1=NCCCCN1`, in that order: above 200 µM and above 200 µM.

Take `O=C1c2ccccc2C(=O)N1CC(O)COc1cccc2ccccc12` (stereo unspecified): the EC50 was above 200 µM and the IC50 is above 200 µM. Consider `CCNC(=O)CCN(C(=O)O)S(=O)(=O)c1ccc(NC(=O)c2ccccc2)cc1`, for which the EC50 is above 603 µM and the IC50 was above 603 µM. For `Cc1ccc2nnc(NS(=O)(=O)c3cc(C)c(Cl)cc3S)n2n1`, the EC50 was above 200 µM and the IC50 was above 200 µM. For `COc1ccc(C2S/C(=C\c3ccccc3)C(=O)N2NC(=O)Cc2ccccc2)cc1` (stereo unspecified), the EC50 is above 23.4 µM and the IC50 was 19.1 µM. Take `CC/C(=C(\C#N)c1ccc(OCCN(CC)CC)cc1)c1ccc(OCCN(CC)CC)cc1`: the EC50 was above 200 µM and the IC50 is 1.86 µM.

As to `O=C(O)c1c2c(cc3c1CC1(Cc4cc5c(cc4C1=O)CCC5)C3)CCC2` (stereo unspecified), the EC50 was above 200 µM and the IC50 worked out at 72.4 µM.

Consider `Cc1ccc(-n2nc3c(c(C#N)c2=O)-c2ccccc2C3=O)cc1`, for which the outcome was inactive. `O=C1c2ccccc2-c2nc(-c3ccccc3)cc3c2c1nc1ccccc13`: the EC50 was above 200 µM and the IC50 stood at 30.2 µM. Turning to `C[P@](=O)(CCSc1ccccc1)c1ccccc1`, the EC50 is above 468 µM and the IC50 is above 468 µM.

Turning to `CCCOc1cnc([C@H]2CCC3[C@@H]4CC=C5C[C@@H](OC(=O)CCC(=O)O)CC[C@]5(C)C4CC[C@@]32C)s1` (stereo partly specified), the EC50 is above 47.9 µM and the IC50 turned out to be 19.1 µM. The like results for `CCCCCCN=Cc1c(O)c(O)c(C(C)C)c2cc(C)c(-c3c(C)cc4c(C(C)C)c(O)c(O)c(C=NCCCCCC)c4c3O)c(O)c12` were, in that order, above 200 µM and 129 µM. As for `O=Cc1cc(O)c(O)c(O)c1-c1c(C=O)cc(O)c(O)c1O`, the EC50 was above 174 µM and the IC50 was 34.7 µM. As for `O=C(CCC(=O)C(C(=O)c1ccccc1)c1ccccc1)Nc1cccc(C(F)(F)F)c1` (stereo unspecified), the result was inactive. In the case of `c1ccc(CNc2nncc3[nH]cnc23)cc1`, the EC50 was above 200 µM and the IC50 is above 200 µM. For the molecule `NC1=NNC(=O)C1N=Nc1ccc(S(=O)(=O)Nc2nccs2)cc1` (stereo unspecified), the EC50 was above 200 µM and the IC50 is above 200 µM.

Turning to `CN(C)C(=S)SSC(=S)N(C)C.[Zn+2]`, the EC50 was above 200 µM and the IC50 is 0.117 µM. The like results for `COC(=O)CC1(O)C(C=C(C)C)C(C(=O)OC)C(=O)C(C(=O)OC)C1C(=O)OC` (stereo unspecified) were, in that order, above 200 µM and above 200 µM. For `COC(=O)CC(=O)OC1C[C@@H]2CCC3C(C)(C)CCC[C@]3(C)C23CC[C@@]1(C)C3` (stereo partly specified), in that order: above 18.2 µM and above 18.2 µM. For `O=[N+]([O-])C(=C(Cl)Cl)C(Cl)=C(Cl)Cl`, in that order: above 200 µM and above 200 µM. In the case of `O=[N+]([O-])c1ccc(C=C2C=CN(CCO)C=C2)cc1`, the EC50 was above 200 µM and the IC50 is above 200 µM. As for `CC1(O)CC2(O)C=CC3=C(C(=O)c4cccc(O)c4C3=O)C2(O)C(=O)C1O` (stereo unspecified), the EC50 is above 676 µM and the IC50 was found to be 0.339 µM. Consider `O=C1NC(N/N=C\C(O)C(O)C(O)C(O)CO)=N/C1=C/c1ccccc1` (stereo unspecified), for which the EC50 is above 200 µM; the IC50 is 105 µM and 31.6 µM and > 200 µM. For `COc1ccc(-c2oc3cc(OC)c(OC)c(OC)c3c(=O)c2OC)cc1OC`, the EC50 is above 200 µM and the IC50 worked out at 3.8 µM. Take `CCOC(OCC)[C@@H]1C[C@@H]2N(O[C@H](OC3CCCC3(c3ccccc3)c3ccccc3)[C@H](OC(C)=O)[C@@]2(CC)Cc2ccc(OC)c(OC)c2)O1` (stereo partly specified): the EC50 was above 200 µM and the IC50 is above 200 µM. Regarding `CC(NNC(=S)N1CCN(c2ccccn2)CC1)c1cccc[n+]1[O-]` (stereo unspecified), the EC50 is above 67.6 µM and the IC50 was 0.195 µM. In the case of `CCCCNc1nc(C#N)c(N)s1`, the EC50 was above 1260 µM and the IC50 amounted to 204 µM. Turning to `COc1ccc(OC)c2c1ccc1c(C)c3ccccc3c(C)c12`, the EC50 was above 200 µM and the IC50 worked out at 35.5 µM. The like results for `CCO/C=C1\C(=O)N(C(C)=O)c2cc(OC)c(OC)cc21` were, in that order, above 200 µM and 26.9 µM. For `C/C(=C\CNc1ncnc2c1ncn2CCC#N)CO`, in that order: above 200 µM and above 200 µM.

For the molecule `CSc1ncccc1C(=O)[O][Sn]([c]1ccccc1)([c]1ccccc1)[c]1ccccc1`, the EC50 was above 2 µM and the IC50 was 0.316 µM.

`COc1ccc(S(=O)(=O)Cc2ccc(C(=O)O)cc2)cc1`: the EC50 is above 813 µM and the IC50 was above 813 µM. As for `CC1=NS(=O)(=O)c2cc(Cl)ccc2N1`, the EC50 is above 562 µM; the IC50 was > 407 µM and 537 µM.

As for `c1ccc(N2CCN(CCN3CCc4c([nH]c5ccccc45)C3c3cccnc3)CC2)cc1` (stereo unspecified), the EC50 is above 2.4 µM and the IC50 was above 2.4 µM. With `c1ccc2nc3c(nc2c1)[nH]c1ccccc13`, the EC50 was above 12.3 µM and the IC50 is above 12.3 µM.

On to `O=C(c1ccccc1)N1CCCCC(Cl)C1=O` (stereo unspecified), for which the EC50 is above 1000 µM and the IC50 was above 1000 µM. With `NC1=NS(=O)(=O)N=C(N)C1=Cc1ccc([N+](=O)[O-])o1`, the EC50 is above 871 µM and the IC50 was found to be 4.9 µM.

On to `CC1(C)NC(=O)C2(CC(O)C(O)C(OC(=O)c3ccccc3)C2)O1` (stereo unspecified), for which the EC50 is above 263 µM and the half-maximal inhibitory concentration (IC50) is above 263 µM. Turning to `O=C(O)C(CS)NCc1c2ccccc2[n+]([O-])c2ccccc12` (stereo unspecified), the outcome was inactive. Consider `N#CCCSC1SC(=C2SC3=C(SCCS3)S2)SC1SCCC#N` (stereo unspecified), for which the EC50 was above 200 µM and the IC50 was above 200 µM. For the molecule `N#Cc1cc2ccccc2n(Cc2ccccc2)c1=O`, the EC50 is above 200 µM and the IC50 is above 200 µM. As for `O=C(O)c1ccccc1C(=O)Nc1ccc(S(=O)(=O)Nc2nccs2)cc1`, the EC50 is above 200 µM and the IC50 was above 200 µM.

In the case of `COc1cc(/C=c2\sc3n(c2=O)C(c2ccc(Cl)cc2)C2=C(CCCC2C)N=3)cc(OC)c1OC` (stereo unspecified), the EC50 is above 200 µM and the IC50 is above 200 µM. As to `CCCCCCC[CH2][Sn]1([CH2]CCCCCCC)[O]C(=O)c2cccnc2[O]1`, the EC50 is above 7.41 µM and the IC50 was above 7.41 µM.

Regarding `COc1ccc(Cc2nc3ccccc3s2)cc1OC`, the EC50 was above 126 µM and the IC50 came to 13.8 µM. In the case of `COc1cc(/C=C2/SC(c3ccccc3)N(c3cccc(NC(C)=O)c3)C2=O)cc(OC)c1OC` (stereo unspecified), the EC50 is above 200 µM and the IC50 amounted to 53.7 µM.

Consider `Cn1c(=O)c2ncnnc2n(C)c1=O`, for which the EC50 is above 200 µM and the IC50 turned out to be 93.3 µM. The like results for `COCCOCCOCCOCCOCCOCCOCCOCCOCCOCCOCCOCCOCCOCCOCCOCCOCC(=O)N(CCn1cnc2nc(NC(=O)c3ccccc3)[nH]c(=O)c21)CCn1cnc2nc(NC(=O)c3ccccc3)[nH]c(=O)c21` were, in that order, 1.32 µM and 47.9 µM. The like results for `O=C(NC1=NCC(CN2CCN(c3ccccc3)CC2)O1)Nc1ccccc1` (stereo unspecified) were, in that order, above 200 µM and 155 µM. The like results for `CC(C)(C)NNC(=O)CCn1[nH]c(=O)c(Cl)c(Cl)c1=O` were, in that order, above 407 µM and above 407 µM. `NNC(=Nc1ccccc1)SCc1ccccc1`: the outcome was inactive.

As for `CCCCCCCCCCCCCCCCNC(=O)/C(=C\c1ccccc1O)NC(=O)c1ccccc1`, the EC50 is above 200 µM and the IC50 is above 200 µM. Consider `CC(=O)Nc1ccc(/C=C/C(=O)c2sc(-c3nc(C)c(C(=O)/C=C/c4ccc(NC(C)=O)cc4)s3)nc2C)cc1`, for which the EC50 is above 33.1 µM and the IC50 was above 33.1 µM. Consider `O=C(O)C12C3C4C1C1C2C3C1(Br)C41OCCO1` (stereo unspecified), for which the EC50 is above 832 µM and the IC50 was above 832 µM. In the case of `N=c1c2ccccc2nnn1-c1ccccc1[N+](=O)[O-]`, the result was inactive.

For `O=[N+]([O-])c1ccc(C2=NOC(c3ccc(Cl)cc3)N2C23CC4CC(CC(C4)C2)C3)cc1` (stereo unspecified), the EC50 is above 200 µM and the IC50 turned out to be 182 µM.

Take `CC(=O)OC(C(=O)[O][Sn]([CH3])([CH3])[CH3])c1ccccc1` (stereo unspecified): the outcome was inactive.
